From patent publication US9730914B2, “3,5-diaminopyrazole kinase inhibitors” (Axikin Pharmaceuticals, Inc., priority 2014, dated 2017)

Experiments:
JAK2 = molecular target: T1, JAK2 (Homo sapiens, UniProt O60674); assay: Kinase competition binding assay (Kd, qPCR readout), JAK2; settings: for Kd: Kd class, JAK2, read-out: JAK2 Activity Level; for RCK:JAK2 selectivity ratio: ratio Kd (JAK2): Kd(RCK)
T1 construct: made in house; host or cells: E. coli BL21-derived host (T7 phage) or HEK-293
Method: (§1) For most assays, kinase-tagged T7 phage strains were prepared in an E. coli host derived from the BL21 strain. E. coli were grown to log-phase and infected with T7 phage and incubated with shaking at 32° C. until lysis. The lysates were centrifuged and filtered to remove cell debris. The remaining kinases were produced in HEK-293 cells and subsequently tagged with DNA for quantitative PCR (qPCR) detection.
(§2) Streptavidin-coated magnetic beads were treated with biotinylated small molecule ligands for 30 minutes at room temperature to generate affinity resins for kinase assays. The liganded beads were blocked with excess biotin and washed with blocking buffer (SeaBlock (Pierce), 1% BSA, 0.05% Tween 20, 1 mM DTT) to remove unbound ligand and to reduce nonspecific binding. Binding reactions were assembled by combining kinases, liganded affinity beads, and test compounds in 1× binding buffer (20% SeaBlock, 0.17×PBS, 0.05% Tween 20, 6 mM DTT). All reactions were performed in polystyrene 96-well plates in a final volume of 0.135 mL. The assay plates were incubated at room temperature with shaking for 1 hour and the affinity beads were washed with wash buffer (1×PBS, 0.05% Tween 20). The beads were then re-suspended in elution buffer (1×PBS, 0.05% Tween 20, 0.5 μM non-biotinylated affinity ligand) and incubated at room temperature with shaking for 30 minutes. The kinase concentration in the eluates was measured by qPCR.
(§3) An 11-point 3-fold serial dilution of each test compound was prepared in 100% DMSO at 100× final test concentration and subsequently diluted to 1× in the assay (final DMSO concentration=1%). Most Kd values were determined using a compound top concentration=30,000 nM. If the initial Kd determined was <0.5 nM, (the lowest concentration tested), the measurement was repeated with a serial dilution starting at a lower top concentration. A more detailed description of this assay may be found in Fabian, M. A. et al. Nat. Biotechnol. 2005, 23, 329-336, which is incorporated herein in its entirety.
(§4) The biological results of inhibition of the kinase domain protein of RC kinase (RCK) and JAK2 and JAK3 are summarized in Tables 2 and 3, wherein A represents a Kd of <50 nM; B represents 50 nM<Kd<100 nM; C represents 100 nM<Kd<1000 nM; and D represents a Kd>1000 nM.
Additionally, RCK:JAK2 selectivity, as measured by the ratio Kd (JAK2): Kd(RCK) is represented as follows: A represents Kd (JAK2): Kd (RCK)>100; B represents 10<Kd(JAK2): Kd (RCK)<100; C represents 1<Kd (JAK2): Kd (RCK)<10; and D represents Kd(JAK2): Kd (RCK)<1.

[1] = molecular target: T2, kinase domain protein of RC kinase (RCK) (Homo sapiens, UniProt Q56UN5); assay: Kinase competition binding assay (Kd, qPCR readout), RC kinase; settings: Kd class, read-out: RCK Activity Level
T2 construct: made in house; host or cells: E. coli BL21-derived host (T7 phage) or HEK-293
T2 sequence (Q56UN5 1061-1324 limits assumed): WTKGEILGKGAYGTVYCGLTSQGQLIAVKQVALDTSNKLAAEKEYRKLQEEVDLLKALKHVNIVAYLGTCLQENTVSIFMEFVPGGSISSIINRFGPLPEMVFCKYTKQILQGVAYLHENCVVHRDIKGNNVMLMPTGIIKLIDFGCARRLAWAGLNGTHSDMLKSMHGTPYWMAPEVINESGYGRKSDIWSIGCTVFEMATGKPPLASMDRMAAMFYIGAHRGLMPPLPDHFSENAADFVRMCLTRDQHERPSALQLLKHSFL
Method: as §1, §2, §3, §4

JAK3 = molecular target: T3, JAK3 (Homo sapiens, UniProt P52333); assay: Kinase competition binding assay (Kd, qPCR readout), JAK3; settings: for Kd: Kd class, JAK3, read-out: JAK3 Activity Level; for RCK:JAK3 selectivity ratio: ratio Kd (JAK3): Kd (RCK)
T3 construct: made in house; host or cells: E. coli BL21-derived host (T7 phage) or HEK-293
T3 sequence (P52333 811-1124 limits assumed): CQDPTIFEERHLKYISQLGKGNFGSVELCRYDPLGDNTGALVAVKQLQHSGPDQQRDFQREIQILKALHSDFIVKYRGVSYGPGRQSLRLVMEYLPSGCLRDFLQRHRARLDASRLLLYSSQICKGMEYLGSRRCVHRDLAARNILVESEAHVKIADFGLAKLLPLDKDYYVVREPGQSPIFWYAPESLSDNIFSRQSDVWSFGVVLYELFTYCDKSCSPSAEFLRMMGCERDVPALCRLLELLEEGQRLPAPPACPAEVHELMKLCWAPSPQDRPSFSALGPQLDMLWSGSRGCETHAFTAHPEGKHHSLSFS
Method: as §1, §2, §3, §4
Similarly, RCK:JAK3 selectivity, as measured by the ratio Kd (JAK3): Kd (RCK) is represented as follows: A represents Kd (JAK3): Kd (RCK)>100; B represents 10<Kd (JAK3): Kd (RCK)<100; C represents 1<Kd (JAK3): Kd (RCK)<10; and D represents Kd (JAK3): Kd(RCK)<1.

T1 sequence (O60674 840-1132 limits assumed): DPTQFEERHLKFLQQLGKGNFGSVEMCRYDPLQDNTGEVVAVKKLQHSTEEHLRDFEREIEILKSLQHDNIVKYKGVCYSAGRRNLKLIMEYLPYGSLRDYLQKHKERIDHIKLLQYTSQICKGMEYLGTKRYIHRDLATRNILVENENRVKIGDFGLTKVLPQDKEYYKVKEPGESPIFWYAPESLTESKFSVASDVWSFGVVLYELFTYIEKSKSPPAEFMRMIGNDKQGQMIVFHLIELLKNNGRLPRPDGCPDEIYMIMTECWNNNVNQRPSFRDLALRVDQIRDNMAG

## Cc1cc(CNc2[nH]nc(Nc3ccc(N4CCN(c5ncccn5)CC4)cc3)c2C(N)=O)cc(C)c1O [Compound 44, 5-((4-hydroxy-3,5-dimethylbenzyl)amino)-3-((4-(4-(pyrimidin-2-yl)piperazin-1-yl)phenyl)amino)-1H-pyrazole-4-carboxamide]
JAK2
  Kd: > 1000 nM
  RCK:JAK2 selectivity ratio: B (B represents 10<Kd(JAK2): Kd (RCK)<100)
[1]
  Kd: 100 to 1000 nM
JAK3
  Kd: > 1000 nM
  RCK:JAK3 selectivity ratio: B (B represents 10<Kd (JAK3): Kd (RCK)<100)

## Cc1cc(CNc2[nH]nc(Nc3ccc(N4CCN(C(C)C)CC4)cc3)c2C(N)=O)cc(C)c1O [Compound 1, 5-((4-hydroxy-3,5-dimethylbenzyl)amino)-3-((4-(4-isopropylpiperazin-1-yl)phenyl)amino)-1H-pyrazole-4-carboxamide]
JAK2
  Kd: 100 to 1000 nM
  RCK:JAK2 selectivity ratio: A (A represents Kd (JAK2): Kd (RCK)>100)
[1]
  Kd: < 50 nM
JAK3
  Kd: 100 to 1000 nM
  RCK:JAK3 selectivity ratio: A (A represents Kd (JAK3): Kd (RCK)>100)

## COc1cccc(Nc2n[nH]c(NCc3cc(C)c(O)c(C)c3)c2C(N)=O)c1 [Compound 52, 5-((4-hydroxy-3,5-dimethylbenzyl)amino)-3-((3-methoxyphenyl)amino)-1H-pyrazole-4-carboxamide]
JAK2
  Kd: > 1000 nM
  RCK:JAK2 selectivity ratio: C (C represents 1<Kd (JAK2): Kd (RCK)<10)
[1]
  Kd: > 1000 nM
JAK3
  Kd: > 1000 nM
  RCK:JAK3 selectivity ratio: C (C represents 1<Kd (JAK3): Kd (RCK)<10)

## NC(=O)c1c(Nc2ccc(-n3cccc3)cc2)n[nH]c1NCc1ccc(O)cc1 [reference compound]
JAK2
  Kd: < 50 nM
  RCK:JAK2 selectivity ratio: D (D represents Kd(JAK2): Kd (RCK)<1)
[1]
  Kd: < 50 nM
JAK3
  Kd: < 50 nM
  RCK:JAK3 selectivity ratio: C (C represents 1<Kd (JAK3): Kd (RCK)<10)

## NC(=O)c1c(Nc2ccc(N3CCN(C(=O)N4CCOCC4)CC3)cc2)n[nH]c1NCc1ccc(O)cc1 [reference compound]
JAK2
  Kd: < 50 nM
  RCK:JAK2 selectivity ratio: D (D represents Kd(JAK2): Kd (RCK)<1)
[1]
  Kd: < 50 nM
JAK3
  Kd: < 50 nM
  RCK:JAK3 selectivity ratio: C (C represents 1<Kd (JAK3): Kd (RCK)<10)

## Cc1cc(CNc2[nH]nc(Nc3ccc(F)cc3)c2C(N)=O)cc(C)c1O [Compound 42, 3-((4-fluorophenyl)amino)-5-((4-hydroxy-3,5-dimethylbenzyl)amino)-1H-pyrazole-4-carboxamide]
JAK2
  Kd: > 1000 nM
  RCK:JAK2 selectivity ratio: B (B represents 10<Kd(JAK2): Kd (RCK)<100)
[1]
  Kd: > 1000 nM
JAK3
  Kd: > 1000 nM
  RCK:JAK3 selectivity ratio: B (B represents 10<Kd (JAK3): Kd (RCK)<100)

## CC1CCN(C2CCN(c3ccc(Nc4n[nH]c(NCc5ccc(O)cc5)c4C(N)=O)cc3)CC2)CC1 [reference compound]
JAK2
  Kd: < 50 nM
  RCK:JAK2 selectivity ratio: C (C represents 1<Kd (JAK2): Kd (RCK)<10)
[1]
  Kd: < 50 nM
JAK3
  Kd: < 50 nM
  RCK:JAK3 selectivity ratio: D (D represents Kd (JAK3): Kd(RCK)<1)

## NC(=O)c1c(Nc2ccc(N3CCC(Cl)CC3)cc2)n[nH]c1NCc1ccc(O)cc1 [reference compound]
JAK2
  Kd: < 50 nM
  RCK:JAK2 selectivity ratio: D (D represents Kd(JAK2): Kd (RCK)<1)
[1]
  Kd: < 50 nM
JAK3
  Kd: < 50 nM
  RCK:JAK3 selectivity ratio: C (C represents 1<Kd (JAK3): Kd (RCK)<10)

## Cc1cc(CNc2[nH]nc(Nc3ccc(N4CCN(Cc5ccccc5)CC4)cc3)c2C(N)=O)cc(C)c1O [Compound 31, 3-((4-(4-benzylpiperazin-1-yl)phenyl)amino)-5-((4-hydroxy-3,5-dimethylbenzyl)amino)-1H-pyrazole-4-carboxamide]
JAK2
  Kd: > 1000 nM
  RCK:JAK2 selectivity ratio: B (B represents 10<Kd(JAK2): Kd (RCK)<100)
[1]
  Kd: < 50 nM
JAK3
  Kd: > 1000 nM
  RCK:JAK3 selectivity ratio: B (B represents 10<Kd (JAK3): Kd (RCK)<100)

## COc1ccccc1C(=O)Nc1ccc(Nc2n[nH]c(NCc3ccc(O)cc3)c2C(N)=O)cc1 [reference compound]
JAK2
  Kd: < 50 nM
  RCK:JAK2 selectivity ratio: B (B represents 10<Kd(JAK2): Kd (RCK)<100)
[1]
  Kd: < 50 nM
JAK3
  Kd: < 50 nM
  RCK:JAK3 selectivity ratio: B (B represents 10<Kd (JAK3): Kd (RCK)<100)

## NC(=O)c1c(Nc2cnc(N3CCOCC3)c(Cl)c2)n[nH]c1NCc1ccc(O)cc1 [reference compound]
JAK2
  Kd: < 50 nM
  RCK:JAK2 selectivity ratio: C (C represents 1<Kd (JAK2): Kd (RCK)<10)
[1]
  Kd: < 50 nM
JAK3
  Kd: 50 to 100 nM
  RCK:JAK3 selectivity ratio: C (C represents 1<Kd (JAK3): Kd (RCK)<10)

## Cc1cc(CNc2[nH]nc(Nc3ccc(-c4ccccn4)cc3)c2C(N)=O)cc(C)c1O [Compound 9, 5-((4-hydroxy-3,5-dimethylbenzyl)amino)-3-((4-(pyridin-2-yl)phenyl)amino)-1H-pyrazole-4-carboxamide]
JAK2
  Kd: > 1000 nM
  RCK:JAK2 selectivity ratio: B (B represents 10<Kd(JAK2): Kd (RCK)<100)
[1]
  Kd: 50 to 100 nM
JAK3
  Kd: > 1000 nM
  RCK:JAK3 selectivity ratio: A (A represents Kd (JAK3): Kd (RCK)>100)

## Cc1cc(CNc2[nH]nc(Nc3ccc(N4CCN(C)CC4)c(Cl)c3)c2C(N)=O)cc(C)c1O [Compound 41, 3-((3-chloro-4-(4-methylpiperazin-1-yl)phenyl)amino)-5-((4-hydroxy-3,5-dimethylbenzyl)amino)-1H-pyrazole-4-carboxamide]
JAK2
  Kd: 100 to 1000 nM
  RCK:JAK2 selectivity ratio: B (B represents 10<Kd(JAK2): Kd (RCK)<100)
[1]
  Kd: < 50 nM
JAK3
  Kd: > 1000 nM
  RCK:JAK3 selectivity ratio: A (A represents Kd (JAK3): Kd (RCK)>100)

## Cc1cc(CNc2[nH]nc(Nc3ccc(S(N)(=O)=O)cc3)c2C(N)=O)cc(C)c1O [Compound 48, 5-((4-hydroxy-3,5-dimethylbenzyl)amino)-3-((4-sulfamoylphenyl)amino)-1H-pyrazole-4-carboxamide]
JAK2
  Kd: 100 to 1000 nM
  RCK:JAK2 selectivity ratio: C (C represents 1<Kd (JAK2): Kd (RCK)<10)
[1]
  Kd: 100 to 1000 nM
JAK3
  Kd: > 1000 nM
  RCK:JAK3 selectivity ratio: B (B represents 10<Kd (JAK3): Kd (RCK)<100)

## Cc1cc(CNc2[nH]nc(Nc3ccc(N4CCOCC4)cn3)c2C(N)=O)cc(C)c1O [Compound 11, 5-((4-hydroxy-3,5-dimethylbenzyl)amino)-3-((5-morpholinopyridin-2-yl)amino)-1H-pyrazole-4-carboxamide]
JAK2
  Kd: 100 to 1000 nM
  RCK:JAK2 selectivity ratio: C (C represents 1<Kd (JAK2): Kd (RCK)<10)
[1]
  Kd: 50 to 100 nM
JAK3
  Kd: > 1000 nM
  RCK:JAK3 selectivity ratio: B (B represents 10<Kd (JAK3): Kd (RCK)<100)

## Cc1cc(CNc2[nH]nc(Nc3ccc(N4CCOCC4)cc3)c2C(N)=O)cc(C)c1O [Compound 3, 5-((4-hydroxy-3,5-dimethylbenzyl)amino)-3-((4-morpholinophenyl)amino)-1H-pyrazole-4-carboxamide]
JAK2
  Kd: 100 to 1000 nM
  RCK:JAK2 selectivity ratio: B (B represents 10<Kd(JAK2): Kd (RCK)<100)
[1]
  Kd: < 50 nM
JAK3
  Kd: > 1000 nM
  RCK:JAK3 selectivity ratio: A (A represents Kd (JAK3): Kd (RCK)>100)

## Cc1cc(CNc2[nH]nc(Nc3ccc(N4CCCCC4)cc3)c2C(N)=O)cc(C)c1O [Compound 27, 5-((4-hydroxy-3,5-dimethylbenzyl)amino)-3-((4-(piperidin-1-yl)phenyl)amino)-1H-pyrazole-4-carboxamide]
JAK2
  Kd: > 1000 nM
  RCK:JAK2 selectivity ratio: B (B represents 10<Kd(JAK2): Kd (RCK)<100)
[1]
  Kd: 100 to 1000 nM
JAK3
  Kd: > 1000 nM
  RCK:JAK3 selectivity ratio: B (B represents 10<Kd (JAK3): Kd (RCK)<100)

## NC(=O)c1c(Nc2ccc(N3CCN(c4ncccn4)CC3)cc2)n[nH]c1NCc1ccc(O)cc1 [reference compound]
JAK2
  Kd: < 50 nM
  RCK:JAK2 selectivity ratio: C (C represents 1<Kd (JAK2): Kd (RCK)<10)
[1]
  Kd: < 50 nM
JAK3
  Kd: < 50 nM
  RCK:JAK3 selectivity ratio: C (C represents 1<Kd (JAK3): Kd (RCK)<10)
